# Reference: patent US20250084080A1, “CRYSTALLINE AND SALT FORMS OF AN NLRP3 INHIBITOR” (BioAge Labs, Inc., priority 2023, published 2025)
# Columns and labels:
# Format in all cases: physicochemical
# [1] = Bulk stability (solid state, 1 week; HPLC, XRPD, IC, color); parameters: key to CL (color): A: no change of color; B: slight discoloration; C: medium discoloration; D: strong discoloration
# Protocol: Bulk stability of free form Pattern B was evaluated at 25° C./92.5% RH in an open container, at 40° C./75% RH in an open container and at 60° C. in a tight container over 1 week.
# [2] = Hygroscopicity by dynamic vapor sorption (DVS) at 25° C.; conditions: for Desorp. (%) / Sorp. (%): DVS 25° C.
# Summary of the method: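 About 5–10 mg sample was cycled 40-0-95-0-40% RH in 10% steps at 25 °C with water vapour. Equilibrium criterion was 0.002 %/min dm/dt, with a minimum 60 min stability duration and a maximum 360 min per stage.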
# [3] = Competitive equilibration and water activity experiments; conditions: water activity 0 to 0.4 at 5° C. and 0 to 0.6 at 25° C., equilibration 5 days
# Protocol: Relative stability of the hydrate Pattern A and the anhydrate Pattern B was investigated by competitive equilibration and water activity experiments at 5° C. and 25° C.
# [4] = Solubility at 37° C. in buffers and biorelevant media, XRPD of residual solid; conditions: for solubility at 2 h / solubility at 24 h: thermodynamic from solid
# Summary of the method: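 Solids equivalent to 10 mg anhydrous free form were stirred in 5 mL of each medium (pH 1.2 HCl, pH 4.5 acetate, pH 6.8 phosphate, water, FaSSGF, FaSSIF-v1, FeSSIF-v1, HPMC/Pluronic in acetate) at 37 °C, 400 rpm. Sampled at 2 h and 24 h; supernatant analyzed by HPLC plus pH, 24 h residual solid by XRPD.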
# [5] = Bulk stability (solid state, 1 week; HPLC, XRPD, IC, color); conditions: sodium salt
# [6] = 25° C./92.5% RH open, 40° C./75% RH open, 60° C. tight container
# [7] = Solid state, 25° C./92.5% RH, open
# [8] = Solid state, 40° C./75% RH, open
# [9] = 2% HPMC + 1% Pluronic F68 in pH 4.5 acetate buffer (50 mM), 37° C.
# [10] = aqueous buffer, pH 4.5 acetate buffer (50 mM), 37° C.
# [11] = aqueous buffer, pH 6.8 phosphate buffer (50 mM), 37° C.
# [12] = aqueous with cosolvent or surfactant or cyclodextrin, 2% HPMC + 1% Pluronic F68 in pH 4.5 acetate buffer (50 mM), 37° C.
# [13] = fassgf or other biorelevant, FaSSGF, pH 1.6, 37° C.
# [14] = pH 4.5 acetate buffer (50 mM), 37° C.
# [15] = pH 6.8 phosphate buffer (50 mM), 37° C.
# [16] = simulated gastric fluid, pH 1.2 HCl buffer, 37° C.
smiles,measurement,setting,value
"CCOc1cc(C(=O)N(C)Cc2cnc(CO)c3cn[nH]c23)ccc1-c1cc(F)cc(F)c1 [Free form Pattern A, 2-ethoxy-3′,5′-difluoro-N-((4-(hydroxymethyl)-1H-pyrazolo[4,3-c]pyridin-7-yl)methyl)-N-methyl-[1,1′-biphenyl]-4-carboxamide]","Bulk stability, chemical and physical",[1]; [6],chemically and physically stable
same,Degradation by HPLC,[1]; [6],no obvious degradation
same,Form change by XRPD,[1]; [6],no form change
same,Bulk (HPLC) Purity,[1]; [7],97.9%
same,CL (color),[1]; [7],A
same,Bulk (HPLC) Purity,[1]; [8],97.7%
same,CL (color),[1]; [8],A
same,Bulk (HPLC) Purity,"[1]; Solid state, 60° C., closed",97.8%
same,CL (color),"[1]; Solid state, 60° C., closed",A
same,Desorp. (%),"[2]; 0% RH, 1st desorption",0.01%
same,Sorp. (%),"[2]; 0% RH, 2nd sorption",0.01%
same,Desorp. (%),"[2]; 10% RH, 1st desorption",3.59%
same,Sorp. (%),"[2]; 10% RH, 2nd sorption",0.09%
same,Desorp. (%),"[2]; 20% RH, 1st desorption",3.74%
same,Sorp. (%),"[2]; 20% RH, 2nd sorption",3.45%
same,Desorp. (%),"[2]; 30% RH, 1st desorption",3.79%
same,Sorp. (%),"[2]; 30% RH, 2nd sorption",3.78%
same,Desorp. (%),"[2]; 40% RH, 1st desorption",3.83%
same,Sorp. (%),"[2]; 40% RH, 1st sorption",3.87%
same,Desorp. (%),"[2]; 40% RH, 2nd desorption",3.83%
same,Sorp. (%),"[2]; 40% RH, 2nd sorption",3.82%
same,Desorp. (%),"[2]; 50% RH, 1st desorption",3.93%
same,Sorp. (%),"[2]; 50% RH, 1st sorption",3.90%
same,Desorp. (%),"[2]; 50% RH, 2nd desorption",3.92%
same,Sorp. (%),"[2]; 50% RH, 2nd sorption",3.87%
same,Desorp. (%),"[2]; 60% RH, 1st desorption",4.00%
same,Sorp. (%),"[2]; 60% RH, 1st sorption",3.94%
same,Desorp. (%),"[2]; 60% RH, 2nd desorption",3.99%
same,Sorp. (%),"[2]; 60% RH, 2nd sorption",3.93%
same,Desorp. (%),"[2]; 70% RH, 1st desorption",4.07%
same,Sorp. (%),"[2]; 70% RH, 1st sorption",4.01%
same,Desorp. (%),"[2]; 70% RH, 2nd desorption",4.06%
same,Sorp. (%),"[2]; 70% RH, 2nd sorption",4.00%
same,Desorp. (%),"[2]; 80% RH, 1st desorption",4.17%
same,Sorp. (%),"[2]; 80% RH, 1st sorption",4.12%
same,Desorp. (%),"[2]; 80% RH, 2nd desorption",4.15%
same,Sorp. (%),"[2]; 80% RH, 2nd sorption",4.11%
same,Desorp. (%),"[2]; 90% RH, 1st desorption",4.35%
same,Sorp. (%),"[2]; 90% RH, 1st sorption",4.33%
same,Desorp. (%),"[2]; 90% RH, 2nd desorption",4.33%
same,Sorp. (%),"[2]; 90% RH, 2nd sorption",4.30%
same,Desorp. (%),"[2]; 95% RH, 1st desorption",4.61%
same,Sorp. (%),"[2]; 95% RH, 1st sorption",4.61%
same,Desorp. (%),"[2]; 95% RH, 2nd desorption",4.58%
same,Sorp. (%),"[2]; 95% RH, 2nd sorption",4.58%
same,Water absorbed from 40% RH to 80% RH,[2]; DVS at 25° C.,It absorbed 0.3%
same,XRPD after DVS test,[2]; DVS at 25° C.,No form change
same,Form conversion,[3],converted to anhydrate Pattern B
same,pH of supernatant at 24 h,[4]; [9],(4.6)
same,pH of supernatant at 24 h,"[4]; FaSSGF, pH 1.6, 37° C.",(1.6)
same,pH of supernatant at 24 h,"[4]; FaSSIF-v1, pH 6.5, 37° C.",(6.5)
same,pH of supernatant at 24 h,"[4]; FeSSIF-v1, pH 5.0, 37° C.",(5.0)
same,pH of supernatant at 24 h,"[4]; Water, 37° C.",(6.3)
same,solubility at 2 h,[4]; [10],14.4 µg/mL
same,solubility at 24 h,[4]; [10],13.7 µg/mL
same,solubility at 2 h,[4]; [11],4.7 µg/mL
same,solubility at 24 h,[4]; [11],4.3 µg/mL
same,solubility at 2 h,[4]; [12],24.4 µg/mL
same,solubility at 24 h,[4]; [12],34.3 µg/mL
same,solubility at 2 h,[4]; [13],746 µg/mL
same,solubility at 24 h,[4]; [13],616 µg/mL
same,pH of supernatant at 24 h,"[4]; pH 1.2 HCl buffer, 37° C.",(1.2)
same,pH of supernatant at 24 h,[4]; [14],(4.5)
same,pH of supernatant at 24 h,[4]; [15],(6.8)
same,solubility at 2 h,[4]; [16],425 µg/mL
same,solubility at 24 h,[4]; [16],402 µg/mL
same,solubility at 2 h,"[4]; FaSSIF-v1, pH 6.5, 37° C.",14.5 µg/mL
same,solubility at 24 h,"[4]; FaSSIF-v1, pH 6.5, 37° C.",17.7 µg/mL
same,solubility at 2 h,"[4]; FeSSIF-v1, pH 5.0, 37° C.",142 µg/mL
same,solubility at 24 h,"[4]; FeSSIF-v1, pH 5.0, 37° C.",168 µg/mL
same,solubility at 2 h,"[4]; Water, 37° C.",5.6 µg/mL
same,solubility at 24 h,"[4]; Water, 37° C.",4.6 µg/mL
"CCOc1cc(C(=O)N(C)Cc2cnc(CO)c3cn[nH]c23)ccc1-c1cc(F)cc(F)c1.[Na] [Sodium salt Pattern A, 2-ethoxy-3′,5′-difluoro-N-((4-(hydroxymethyl)-1H-pyrazolo[4,3-c]pyridin-7-yl)methyl)-N-methyl-[1,1′-biphenyl]-4-carboxamide sodium salt]",Bulk (XRPD),"[5]; 25° C./92.5% RH, open",dissociated to free form Pattern A
same,Bulk (XRPD),"[5]; 60° C., closed",No form change
same,"Bulk stability, chemical and physical",[1]; [6],chemically stable but physically unstable
same,Degradation by HPLC,[1]; [6],no obvious degradation
same,Bulk (HPLC) Purity,[1]; [7],98.7%
same,CL (color),[1]; [7],A
same,Bulk (HPLC) Purity,[1]; [8],98.7%
same,CL (color),[1]; [8],A
same,Bulk (XRPD),"[1]; Solid state, 40° C./75% RH, open, sodium salt",dissociated to free form Pattern A
same,Bulk (HPLC) Purity,"[1]; Solid state, 60° C., closed",98.7%
same,CL (color),"[1]; Solid state, 60° C., closed",A
same,Desorp. (%),"[2]; 0% RH, 1st desorption",0.05%
same,Sorp. (%),"[2]; 0% RH, 1st sorption",0.05%
same,Desorp. (%),"[2]; 0% RH, 2nd desorption",0.00%
same,Sorp. (%),"[2]; 0% RH, 2nd sorption",0.00%
same,Desorp. (%),"[2]; 10% RH, 1st desorption",0.20%
same,Sorp. (%),"[2]; 10% RH, 1st sorption",0.17%
same,Desorp. (%),"[2]; 10% RH, 2nd desorption",0.18%
same,Sorp. (%),"[2]; 10% RH, 2nd sorption",0.14%
same,Desorp. (%),"[2]; 20% RH, 1st desorption",0.28%
same,Sorp. (%),"[2]; 20% RH, 1st sorption",0.23%
same,Desorp. (%),"[2]; 20% RH, 2nd desorption",0.25%
same,Sorp. (%),"[2]; 20% RH, 2nd sorption",0.21%
same,Desorp. (%),"[2]; 30% RH, 1st desorption",0.35%
same,Sorp. (%),"[2]; 30% RH, 1st sorption",0.30%
same,Desorp. (%),"[2]; 30% RH, 2nd desorption",0.33%
same,Sorp. (%),"[2]; 30% RH, 2nd sorption",0.28%
same,Desorp. (%),"[2]; 40% RH, 1st desorption",0.45%
same,Sorp. (%),"[2]; 40% RH, 1st sorption",0.38%
same,Desorp. (%),"[2]; 40% RH, 2nd desorption",0.94%
same,Sorp. (%),"[2]; 40% RH, 2nd sorption",0.38%
same,Sorp. (%),"[2]; 50% RH, 1st sorption",0.49%
same,Desorp. (%),"[2]; 50% RH, 2nd desorption",1.69%
same,Sorp. (%),"[2]; 60% RH, 1st sorption",0.94%
same,Desorp. (%),"[2]; 60% RH, 2nd desorption",2.23%
same,Sorp. (%),"[2]; 70% RH, 1st sorption",1.87%
same,Desorp. (%),"[2]; 70% RH, 2nd desorption",2.55%
same,Sorp. (%),"[2]; 80% RH, 1st sorption",2.71%
same,Desorp. (%),"[2]; 80% RH, 2nd desorption",3.05%
same,Sorp. (%),"[2]; 90% RH, 1st sorption",4.13%
same,Desorp. (%),"[2]; 90% RH, 2nd desorption",4.35%
same,Sorp. (%),"[2]; 95% RH, 1st sorption",6.60%
same,Desorp. (%),"[2]; 95% RH, 2nd desorption",6.60%
same,XRPD after DVS test,"[2]; DVS at 25° C., sodium salt",No form change
same,pH of supernatant at 24 h,[4]; [9],(4.7)
same,Solubility compared with the free form Pattern A,[4]; 2% HPMC+1% Pluronic F68 in acetate buffer (pH 4.5),obviously improved solubility
same,pH of supernatant at 24 h,"[4]; FaSSGF, pH 1.6, 37° C.",(1.8)
same,pH of supernatant at 24 h,"[4]; FaSSIF-v1, pH 6.5, 37° C.",(6.7)
same,pH of supernatant at 24 h,"[4]; FeSSIF-v1, pH 5.0, 37° C.",(5.1)
same,pH of supernatant at 24 h,"[4]; Water, 37° C.",(11.1)
same,solubility at 2 h,[4]; [10],9.3 µg/mL
same,solubility at 24 h,[4]; [10],7.4 µg/mL
same,solubility at 2 h,[4]; [11],3.1 µg/mL
same,solubility at 24 h,[4]; [11],2.8 µg/mL
same,solubility at 2 h,[4]; [12],273 µg/mL
same,solubility at 24 h,[4]; [12],260 µg/mL
same,solubility at 2 h,[4]; [13],664 µg/mL
same,solubility at 24 h,[4]; [13],630 µg/mL
same,pH of supernatant at 24 h,"[4]; pH 1.2 HCl buffer, 37° C.",(1.3)
same,pH of supernatant at 24 h,[4]; [14],(4.6)
same,pH of supernatant at 24 h,[4]; [15],(7.0)
same,solubility at 2 h,[4]; [16],608 µg/mL
same,solubility at 24 h,[4]; [16],511 µg/mL
same,solubility at 2 h,"[4]; FaSSIF-v1, pH 6.5, 37° C.",10.2 µg/mL
same,solubility at 24 h,"[4]; FaSSIF-v1, pH 6.5, 37° C.",13.1 µg/mL
same,solubility at 2 h,"[4]; FeSSIF-v1, pH 5.0, 37° C.",144 µg/mL
same,solubility at 24 h,"[4]; FeSSIF-v1, pH 5.0, 37° C.",149 µg/mL
same,solubility at 2 h,"[4]; Water, 37° C.",7.7 µg/mL
same,solubility at 24 h,"[4]; Water, 37° C.",8.2 µg/mL
